The text below walks through data of PubChem BioAssay (NCI).

Test systems include SK-MEL-2 melanoma; HOP-92 NSCLC; NCI-H226 lung; OVCAR-3 ovarian; RPMI-8226 leukemia; M14 melanoma; UACC-257 melanoma; SK-MEL-28 melanoma; HOP-62 NSCLC; NCI-H23 lung; SF-539 CNS; SK-OV-3 ovarian; HCT-15 colon; SR leukemia.
Assay in all cases: growth of human tumour cells (NCI), 48 h

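96-well plates; 48 h exposure; 5 concentrations. Endpoints by linear interpolation between flanking doses. Not reached: highest tested concentration assigned. TGI: total growth inhibition.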

Consider `Cc1cccc(NC(=O)/C=C/c2ccc(N(CCC#N)CCC#N)cc2C)c1`, for which the TGI with SK-MEL-2 melanoma, in the assay on HOP-92 NSCLC, in the assay on NCI-H226 lung, in the assay with OVCAR-3 ovarian, with RPMI-8226 leukemia and in the assay with M14 melanoma was greater than 100 µM each time. The TGI in the assay with UACC-257 melanoma, in the assay on SK-MEL-28 melanoma, with HOP-62 NSCLC, in the assay with NCI-H23 lung, in the assay on SF-539 CNS and in the assay with SK-OV-3 ovarian was greater than 100 µM in each case. The compound also gave a TGI in the assay with HCT-15 colon greater than 100 µM.
Turning to `Clc1ccc(-c2c(C3=NCCN3)nnn2-c2ccc(Cl)cc2)cc1`, the TGI is 35.1 µM in the assay with SR leukemia; 26.1 µM in the assay with SK-MEL-2 melanoma; 50.2 µM with HOP-92 NSCLC; greater than 100 µM with NCI-H226 lung; greater than 100 µM in the assay on OVCAR-3 ovarian; 38.8 µM in the assay on RPMI-8226 leukemia. For the same compound, the TGI with M14 melanoma is 31.7 µM; with UACC-257 melanoma, 33 µM; with SK-MEL-28 melanoma it was 52.5 µM; with HOP-62 NSCLC it was greater than 100 µM; with NCI-H23 lung, greater than 100 µM; with SF-539 CNS it was 34.2 µM. Moreover, the figures for the TGI in the assay on SK-OV-3 ovarian and in the assay with HCT-15 colon were 93.3 µM and greater than 100 µM, respectively.
As for `CCN1CCN(c2ccc(Nc3ccnc4ccc5nn(C)nc5c34)cc2)CC1`, the TGI in the assay with SR leukemia is greater than 100 µM; with HOP-92 NSCLC it was 26.5 µM; with NCI-H226 lung, 26.2 µM; in the assay with OVCAR-3 ovarian, 29.5 µM; in the assay with RPMI-8226 leukemia, greater than 100 µM; in the assay on M14 melanoma, 30 µM. In addition, the TGI in the assay with UACC-257 melanoma was 30.7 µM; in the assay on SK-MEL-28 melanoma, 30.5 µM; in the assay with HOP-62 NSCLC it was 26.4 µM; with NCI-H23 lung, 29.4 µM; in the assay on SF-539 CNS, 27.2 µM; in the assay on SK-OV-3 ovarian, 31.5 µM. In addition, the TGI in the assay with HCT-15 colon worked out at 27.6 µM.
Turning to `CCCCCC(C[N+]1(C)CCOCC1)C(=O)/C=C/c1ccccc1` (stereo unspecified), the TGI amounted to 39.1 µM with SR leukemia; 29.5 µM with SK-MEL-2 melanoma; 35.3 µM in the assay on HOP-92 NSCLC; 25.6 µM with NCI-H226 lung; 27.4 µM in the assay with OVCAR-3 ovarian; 8.59 µM with RPMI-8226 leukemia. Besides, the TGI with M14 melanoma is 25.9 µM; in the assay on UACC-257 melanoma, 27.6 µM; in the assay on SK-MEL-28 melanoma it was 30 µM; in the assay on HOP-62 NSCLC, 69.2 µM; in the assay with NCI-H23 lung, 32 µM; in the assay with SF-539 CNS, 23.5 µM. In addition, the TGI in the assay on SK-OV-3 ovarian was greater than 88.6 µM; with HCT-15 colon, 25 µM.
As for `Cc1ccc(C2CC(c3ccco3)=NN2c2ccccc2)o1` (stereo unspecified), the TGI with SR leukemia, in the assay on SK-MEL-2 melanoma, in the assay with NCI-H226 lung, with OVCAR-3 ovarian, in the assay on RPMI-8226 leukemia and with M14 melanoma was greater than 100 µM in each case. Further, the TGI with SK-MEL-28 melanoma, with HOP-62 NSCLC, with NCI-H23 lung, in the assay with SF-539 CNS and with HCT-15 colon was greater than 100 µM in each case.
Turning to `N#C/C(=C\c1ccc(O)c(O)c1)C(N)=O`, the TGI with SK-MEL-2 melanoma was greater than 100 µM; in the assay with HOP-92 NSCLC it was greater than 100 µM; in the assay on NCI-H226 lung, greater than 100 µM; in the assay with OVCAR-3 ovarian it was 86.1 µM; with RPMI-8226 leukemia it was greater than 100 µM; in the assay on M14 melanoma it was greater than 100 µM. Besides, the TGI with UACC-257 melanoma was greater than 100 µM; with SK-MEL-28 melanoma, greater than 100 µM; in the assay on HOP-62 NSCLC it was greater than 100 µM; in the assay with NCI-H23 lung, 93.8 µM; in the assay on SF-539 CNS it was greater than 100 µM; in the assay on SK-OV-3 ovarian, greater than 100 µM. For the same compound, the TGI with HCT-15 colon was greater than 100 µM.
Regarding `O=C(C[n+]1ccccc1)NNC(=O)/C(=C/c1ccc2c(c1)OCO2)NC(=O)c1ccccc1`, the TGI is 36.6 µM in the assay with SR leukemia; greater than 100 µM in the assay on SK-MEL-2 melanoma; greater than 100 µM in the assay on HOP-92 NSCLC; greater than 92.4 µM with NCI-H226 lung; greater than 100 µM with OVCAR-3 ovarian; 63 µM in the assay on RPMI-8226 leukemia. The TGI in the assay on M14 melanoma is greater than 100 µM; in the assay on UACC-257 melanoma, greater than 100 µM; with SK-MEL-28 melanoma, greater than 100 µM; with HOP-62 NSCLC, greater than 100 µM; in the assay on NCI-H23 lung, greater than 100 µM; in the assay with SF-539 CNS, 75.1 µM. Further, the TGI with SK-OV-3 ovarian was greater than 100 µM; in the assay with HCT-15 colon, greater than 63.5 µM.
Take `O=C1C(Cl)C(c2ccccc2)N1n1cnc2ccccc2c1=O` (stereo unspecified): the TGI in the assay on SR leukemia, with SK-MEL-2 melanoma, in the assay on NCI-H226 lung, in the assay with OVCAR-3 ovarian, with RPMI-8226 leukemia and in the assay with M14 melanoma was greater than 100 µM each time. Also, the TGI in the assay on UACC-257 melanoma, in the assay with SK-MEL-28 melanoma, in the assay with HOP-62 NSCLC, with NCI-H23 lung, in the assay with SK-OV-3 ovarian and in the assay with HCT-15 colon was greater than 100 µM throughout.
Consider `Nc1ccc(C(=O)NN2C(=O)C(Cl)C2c2ccccc2Cl)cc1` (stereo unspecified), for which the TGI in the assay with SR leukemia is 31.9 µM; in the assay with SK-MEL-2 melanoma it was 24.5 µM; in the assay with HOP-92 NSCLC, 14.9 µM; with NCI-H226 lung it was 31.5 µM; in the assay on OVCAR-3 ovarian it was 26.9 µM; in the assay on RPMI-8226 leukemia, greater than 100 µM. For the same compound, the TGI was found to be 25.9 µM with M14 melanoma; 26.8 µM with UACC-257 melanoma; 28.3 µM with SK-MEL-28 melanoma; 35.4 µM with HOP-62 NSCLC; 24.9 µM in the assay with NCI-H23 lung; 20.2 µM in the assay on SF-539 CNS. Further, the values for the TGI in the assay on SK-OV-3 ovarian and in the assay on HCT-15 colon were 29.6 µM and 10.2 µM, respectively.
As to `COC(=O)C(=C/c1ccc(OC)cc1)/C(C(=O)O)=C(/C)c1ccccc1`, the TGI with SR leukemia, with SK-MEL-2 melanoma, in the assay with HOP-92 NSCLC, in the assay on NCI-H226 lung, in the assay with OVCAR-3 ovarian and in the assay with RPMI-8226 leukemia was greater than 100 µM throughout. For the same compound, the TGI in the assay with M14 melanoma, in the assay on UACC-257 melanoma, with HOP-62 NSCLC, in the assay on NCI-H23 lung, in the assay with SF-539 CNS and in the assay on SK-OV-3 ovarian was greater than 100 µM in each case. This compound also showed a TGI in the assay on HCT-15 colon greater than 100 µM.
